Assay results from patent US10781185B2, “Heterocyclic compounds for the inhibition of PASK” (BioEnergenix LLC, priority 2009, dated 2020).

What was measured:
PASK [1] = biological target: PASK (UniProt # Q96RG2; human recombinant N-terminal GST tagged construct, residues 879-1323) (Homo sapiens (Human), UniProt Q96RG2); assay: PASK ATP Radiochemical Assay; type: biochemical; details: 33P-ATP radiochemical, Myelin Basic Protein substrate; read-out: IC50 Kinase Domain
Description: PASK ATP Radiochemical Assay
Test compounds in DMSO are then added and the mixture, followed by delivery of ^33P-ATP (specific activity 0.01 μCi/μl final) to initiate the reaction. […] The entire reaction mixture is washed through onto a P81 Phosphocellulose paper and washed three times for 10 minutes in 75 mM phosphoric acid and once in methanol prior to drying and scintillation counting.

PASK [2] = biological target: PASK (Homo sapiens (Human), UniProt Q96RG2); assay: PAS Kinase FRET Assay; type: biochemical; details: TR-FRET, Ulight-peptide substrate; read-out: IC50 Kinase Domain
Chain of PASK (Homo sapiens (Human), UniProt Q96RG2) (Q96RG2 999-1251): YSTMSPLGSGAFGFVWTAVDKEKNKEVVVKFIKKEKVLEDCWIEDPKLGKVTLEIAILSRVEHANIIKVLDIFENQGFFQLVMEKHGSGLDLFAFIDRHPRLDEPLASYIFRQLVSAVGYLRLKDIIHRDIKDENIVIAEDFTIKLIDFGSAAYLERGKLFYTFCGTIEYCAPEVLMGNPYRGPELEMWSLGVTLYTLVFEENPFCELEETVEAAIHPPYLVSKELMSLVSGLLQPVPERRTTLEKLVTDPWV
Source text: PAS Kinase FRET Assay The aim of the FRET assay is to determine the inhibition potential of test compounds on targeted kinase. This assay platform provides a homogenous screening method for measuring kinase activity by quantitating the amount of phospho-substrate in solution following a kinase reaction. In the presence of kinase and ATP, the Ulight-peptide is phosphorylated and captured by an anti-phospho-substrate antibody, which brings the Eu chelate donor and Ulight acceptor dyes into close proximity. […] The contents of the plate were and incubated at RT for 1 h. The reaction was stopped by adding 5 μl of stop solution to each test well followed by mixing and incubation at RT for 10 minutes. 5 μl of detection mix (detection antibody diluted in detection buffer) was added; the contents of the plate were mixed and then incubated in the dark for 1 hour at RT. […] The results were graphed to calculate the EC50. Titration of ATP at the EC50 concentration of kinase to determine ATP Km,app. was performed using the following method. […] The contents of the plate were and incubated at RT for 1 h. The reaction was stopped by adding 5 μl of stop solution to each test well followed by mixing and incubation at RT for 10 minutes. 5 μl of detection mix (detection antibody diluted in detection buffer) was added; the contents of the plate were mixed and then incubated in the dark for 1 hour at RT. […] The results were graphed to calculate the EC50 as the ATP Km,app. […] If compound is not soluble under this condition, it was diluted to 3 mM. Kinase reaction buffer was prepared containing 10 mM MgCl2, 50 mM HEPES, 1 mM EGTA, 0.01% TWEEN-20, 2 mM DTT. […] As a positive control, 2.5 μl of positive compound was added to assay wells, and 2.5 μl of DMSO to assay wells as vehicle control. Kinase solution was prepared in reaction buffer at 2× final assay concentration. Kinase solution (5 μl) was added to each well of the assay plate. The substrate and ATP solution was prepared in kinase reaction buffer at 4× final assay concentration. The kinase reaction was started by adding 2.5 μl of substrate+ATP mix solution to each well of the assay plate. The plate is mixed on a plate shaker; then covered and allowed to react for 2 hours in the dark at 25° C. without shaking. The reaction was stopped by adding 5 μl of stop solution to each test well followed by mixing and incubation at RT for 10 minutes in the dark. 5 μl of detection mix (detection antibody diluted in detection buffer) was added; the contents of the plate were mixed and then incubated in the dark for 1 hour at RT.

Chain of PASK (UniProt # Q96RG2; human recombinant N-terminal GST tagged construct, residues 879-1323) (Homo sapiens (Human), UniProt Q96RG2) (Q96RG2 879-1323, change not shown): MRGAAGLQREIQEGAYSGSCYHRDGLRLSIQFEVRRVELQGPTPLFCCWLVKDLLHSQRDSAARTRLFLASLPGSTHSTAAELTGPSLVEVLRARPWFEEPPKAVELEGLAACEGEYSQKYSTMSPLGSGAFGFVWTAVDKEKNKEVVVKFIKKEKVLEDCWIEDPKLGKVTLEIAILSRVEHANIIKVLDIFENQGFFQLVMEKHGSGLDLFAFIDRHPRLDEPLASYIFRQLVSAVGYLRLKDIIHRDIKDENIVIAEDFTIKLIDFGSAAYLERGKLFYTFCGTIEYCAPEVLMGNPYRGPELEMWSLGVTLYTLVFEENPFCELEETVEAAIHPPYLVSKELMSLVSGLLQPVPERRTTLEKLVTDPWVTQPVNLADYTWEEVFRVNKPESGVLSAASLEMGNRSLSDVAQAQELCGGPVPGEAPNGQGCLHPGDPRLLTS

O=C(O)c1ccc2nc(-c3ccccc3)c(N3CCC(c4ccccc4)CC3)nc2c1 [Example 13, 2-Phenyl-3-(4-phenylpiperidin-1-yl)quinoxaline-6-carboxylic acid]
IC50 (PASK [1]): < 10 µM

O=C(O)c1ccc2nc(-c3ccccc3)c(N3CCCCCC3)nc2c1 [Example 14, 3-(Azepan-1-yl)-2-phenylquinoxaline-6-carboxylic acid]
IC50 (PASK [1]): < 10 µM

O=C(O)c1ccc2nc(-c3ccccc3)c(N3CCC(c4ccc(Cl)cc4)CC3)nc2c1 [Example 15, 3-(4-(4-Chlorophenyl)piperidin-1-yl)-2-phenylquinoxaline-6-carboxylic acid]
IC50 (PASK [1]): < 10 µM

O=C(O)c1ccc2nc(-c3ccccc3)c(N3CCCc4ccccc43)nc2c1 [Example 40, 3-(3,4-Dihydroquinolin-1(2H)-yl)-2-phenylquinoxaline-6-carboxylic acid]
IC50 (PASK [2]): ≤ 10 µM
IC50 (PASK [1]): < 10 µM

CC(C)N(C)c1nc2cc(C(=O)O)ccc2nc1-c1ccccc1 [Example 43, 3-(Isopropyl(methyl)amino)-2-phenylquinoxaline-6-carboxylic acid]
IC50 (PASK [2]): ≤ 10 µM
IC50 (PASK [1]): < 10 µM

CN(c1nc2cc(C(=O)O)ccc2nc1-c1ccccc1)C1CC1 [Example 46, 3-(Cyclopropyl(methyl)amino)-2-phenylquinoxaline-6-carboxylic acid]
IC50 (PASK [2]): ≤ 10 µM
IC50 (PASK [1]): < 10 µM

COC[C@H]1CCCN1c1nc2cc(C(=O)O)ccc2nc1-c1ccccc1 [Example 51, (R)-3-(2-(Methoxymethyl)pyrrolidin-1-yl)-2-phenylquinoxaline-6-carboxylic acid]
IC50 (PASK [2]): ≤ 10 µM
IC50 (PASK [1]): < 10 µM

O=C(O)c1ccc2nc(-c3ccccc3)c(N3CCC[C@@H]3CO)nc2c1 [Example 52, (R)-3-(2-(Hydroxymethyl)pyrrolidin-1-yl)-2-phenylquinoxaline-6-carboxylic acid]
IC50 (PASK [2]): ≤ 10 µM
IC50 (PASK [1]): < 10 µM

CC(C)N(C)c1nc2cc(C(=O)O)ccc2nc1-c1ccc(F)cc1 [Example 57, 2-(4-Fluorophenyl)-3-(isopropyl(methyl)amino)quinoxaline-6-carboxylic acid]
IC50 (PASK [2]): ≤ 10 µM
IC50 (PASK [1]): < 10 µM

COc1ccc(-c2nc3ccc(C(=O)O)cc3nc2N(C)C(C)C)cc1 [Example 58, 3-(Isopropyl(methyl)amino)-2-(4-methoxyphenyl)quinoxaline-6-carboxylic acid]
IC50 (PASK [2]): ≤ 10 µM
IC50 (PASK [1]): < 10 µM

CC(C)N(C)c1nc2cc(C(=O)O)ccc2nc1-c1ccc(F)c(F)c1 [Example 63, 2-(3,4-Difluorophenyl)-3-(isopropyl(methyl)amino)quinoxaline-6-carboxylic acid]
IC50 (PASK [2]): ≤ 10 µM
IC50 (PASK [1]): < 10 µM

CC(C)N(C)c1nc2cc(C(=O)O)ccc2nc1-c1ccc(Cl)cc1 [Example 64, 2-(4-Chlorophenyl)-3-(isopropyl(methyl)amino)quinoxaline-6-carboxylic acid]
IC50 (PASK [2]): ≤ 10 µM
IC50 (PASK [1]): < 10 µM

O=C(O)c1ccc2nc(-c3ccccc3)c(N3CCC[C@@H]3C(F)(F)F)nc2c1 [Example 65, (R)-2-Phenyl-3-(2-(trifluoromethyl)pyrrolidin-1-yl)quinoxaline-6-carboxylic acid]
IC50 (PASK [2]): ≤ 10 µM
IC50 (PASK [1]): < 10 µM

COc1ccc2c(c1)CCCN2c1nc2cc(C(=O)O)ccc2nc1-c1ccccc1 [Example 66, 3-(6-Methoxy-3,4-dihydroquinolin-1(2H)-yl)-2-phenylquinoxaline-6-carboxylic acid]
IC50 (PASK [2]): ≤ 10 µM
IC50 (PASK [1]): < 10 µM

O=C(O)c1ccc2nc(-c3ccc(F)cc3)c(N3CCCCC3)nc2c1 [Example 75, 2-(4-Fluorophenyl)-3-(piperidin-1-yl)quinoxaline-6-carboxylic acid]
IC50 (PASK [2]): ≤ 10 µM
IC50 (PASK [1]): < 10 µM

O=C(O)c1ccc2nc(-c3ccc(F)cc3)c(N3CCCCCC3)nc2c1 [Example 76, 3-(Azepan-1-yl)-2-(4-fluorophenyl)quinoxaline-6-carboxylic acid]
IC50 (PASK [2]): ≤ 10 µM
IC50 (PASK [1]): < 10 µM

CC(C)N(C)c1nc2cc(C(=O)O)ccc2nc1-c1ccc2c(c1)OCO2 [Example 77, 2-(Benzo[d][1,3]dioxol-5-yl)-3-(isopropyl(methyl)amino)quinoxaline-6-carboxylic acid]
IC50 (PASK [2]): ≤ 10 µM
IC50 (PASK [1]): < 10 µM

COCC1CCCN(c2nc3cc(C(=O)O)ccc3nc2-c2ccc(F)cc2)C1 (centres unmarked) [Example 78, 2-(4-Fluorophenyl)-3-(3-(methoxymethyl)piperidin-1-yl)quinoxaline-6-carboxylic acid]
IC50 (PASK [2]): ≤ 10 µM
IC50 (PASK [1]): < 10 µM

CC1(C)CCCN(c2nc3cc(C(=O)O)ccc3nc2-c2ccc(F)cc2)C1 [Example 79, 3-(3,3-Dimethylpiperidin-1-yl)-2-(4-fluorophenyl)quinoxaline-6-carboxylic acid]
IC50 (PASK [2]): ≤ 10 µM
IC50 (PASK [1]): < 10 µM

CC1CCCN(c2nc3cc(C(=O)O)ccc3nc2-c2ccc(F)cc2)C1 (centres unmarked) [Example 80, 2-(4-Fluorophenyl)-3-(3-methylpiperidin-1-yl)quinoxaline-6-carboxylic acid]
IC50 (PASK [2]): ≤ 10 µM
IC50 (PASK [1]): < 10 µM

CC(C)N(C)c1nc2cc(C(=O)O)ccc2nc1-c1ccc2c(c1)OCCO2 [Example 81, 2-(2,3-Dihydrobenzo[b][1,4]dioxin-6-yl)-3-(isopropyl(methyl)amino)quinoxaline-6-carboxylic acid]
IC50 (PASK [2]): ≤ 10 µM
IC50 (PASK [1]): < 10 µM

C[C@H]1CCCN1c1nc2cc(C(=O)O)ccc2nc1-c1ccc2c(c1)OCO2 [Example 83, 2-(Benzo[d][1,3]dioxol-5-yl)-3-((S)-2-methylpyrrolidin-1-yl)quinoxaline-6-carboxylic acid]
IC50 (PASK [2]): ≤ 10 µM
IC50 (PASK [1]): < 10 µM

CC(C)N(C)c1nc2cc(C(=O)O)ccc2nc1-c1ccc2[nH]ccc2c1 [Example 84, 2-(1H-Indol-5-yl)-3-(isopropyl(methyl)amino)quinoxaline-6-carboxylic acid]
IC50 (PASK [2]): ≤ 10 µM
IC50 (PASK [1]): < 10 µM

CC(C)N(C)c1nc2cc(C(=O)O)ccc2nc1-c1ccncc1 [Example 87, 3-(Isopropyl(methyl)amino)-2-(pyridin-4-yl)quinoxaline-6-carboxylic acid]
IC50 (PASK [2]): ≤ 10 µM
IC50 (PASK [1]): < 10 µM

CC(C)N(C)c1nc2cc(C(=O)O)ccc2nc1-c1cc2ccccc2o1 [Example 89, 2-(Benzofuran-2-yl)-3-(isopropyl(methyl)amino)quinoxaline-6-carboxylic acid]
IC50 (PASK [2]): ≤ 10 µM
IC50 (PASK [1]): < 10 µM
